Measurements: patent US12502338B2, “Dental glass ionomer cement” (GC Corporation, priority 2020, dated 2025)

Experiment: Water solubility / water insolubility by visual observation
Assay type: physicochemical
Details: 0.4 g sample in 4 g distilled water, 20° C., 30 minutes
Protocol: As used herein and in the claims, a water-soluble compound means a compound having a solubility in water of 10 g/100 g H2O or more at 20° C.
4 g of distilled water and 0.4 g of a sample were sufficiently stirred at 20° C., allowed to stand for 30 minutes, and then visually observed. When white turbidity and biphasic separation were not observed, it was judged to be water soluble. When white turbidity or biphasic separation was observed, it was judged to be water insoluble.

Row | Compound | water solubility / water insolubility
1 | C=CC(=O)NCCO [HEAA, hydroxyethyl acrylamide] | WATER-SOLUBLE
2 | C=C(C)C(=O)OCCO [HEMA, hydroxyethyl methacrylate] | WATER-SOLUBLE
3 | C=C(C)C(=O)OCCOC(=O)NCCC(C)CC(C)(C)CNC(=O)OCCOC(=O)C(=C)C (centres unmarked) [UDMA, di-2-methacryloxyethyl-2,2,4-triethylhexamethylene dicarbamate] | WATER-SOLUBLE
4 | C=C(C)C(=O)OCCOCCOCCOC(=O)C(=C)C [TEGDMA, triethylene glycol dimethacrylate] | WATER-SOLUBLE
5 | isocyanuric acid EO-modified trimethacrylate [UA-7100] | WATER-SOLUBLE
